# Data taken from article PMC7178755 (Toxicology and applied pharmacology, 2019).
# Where “and” joins values, the source holds several entries; their conditions need not be identical. Identical values can stand only once.
# Legend:
# [1] = Plasma toxicokinetics after single gavage administration in mice; assay type: in vivo, B6C3F1/N mice; conditions: for half-life / AUC(0-inf) / Cmax / Tmax / bioavailability: 34 mg/kg; for bioavailability: AUC/Dose (oral) ÷ AUC/Dose (IV) x 100
# [2] = free BPAF; rats; single gavage 20 and 100 mg/kg; ref Li et al. (2013); cited from earlier work
# [3] = female, B6C3F1/N, mouse, plasma, po
# [4] = free BPAF, female B6C3F1/N mice, 34 mg/kg gavage
# [5] = free BPAF, female mice, 34 mg/kg gavage, plasma, mean (SE)
# [6] = free BPAF, male mice, 34 mg/kg gavage, plasma, mean (SE)
# [7] = male, B6C3F1/N, mouse, plasma, po
structure (smiles),measurement,setting,value
"Oc1ccc(C(c2ccc(O)cc2)(C(F)(F)F)C(F)(F)F)cc1 [BPAF, Bisphenol AF]",half-life,"[1]; both, B6C3F1/N, mouse, plasma, po, elimination half-life, free BPAF, male and female mice, 34 mg/kg gavage",≤ 4.22 h
same,AUC(0-inf),[1]; [3],495 ng·h/mL and 1.47 µM·h
same,Cmax,[1]; [3],105 ng/mL and 313 nM
same,Tmax,[1]; [3],0.342 h
same,half-life,"[1]; female, B6C3F1/N, mouse, plasma, po, Alpha Half-life, free BPAF, female mice, 34 mg/kg gavage, mean (SE)",0.209 h
same,half-life,"[1]; female, B6C3F1/N, mouse, plasma, po, Beta Half-life, free BPAF, female mice, 34 mg/kg gavage, mean (SE)",9.02 h
same,bioavailability,"[1]; female, B6C3F1/N, mouse, plasma, po, Bioavailability, free BPAF, Female Mice, 34 mg/kg gavage",3%
same,half-life,"[1]; female, B6C3F1/N, mouse, plasma, po, K10 Half-Life, free BPAF, female mice, 34 mg/kg gavage, mean (SE)",1.33 h
same,bioavailability,"[1]; free BPAF, Female Mice, 34 mg/kg gavage",3.13%
same,bioavailability,"[1]; free BPAF, Male Mice, 34 mg/kg gavage",5.64%
same,Dose-normalized AUC0−∞,[1]; [4],14.6 (nmol.h/mL)/(mmol/kg)
same,Dose-normalized Cmax,[1]; [4],3.099 (nmol/mL)/(mmol/kg)
same,Cl1_F,[1]; [5],68.7 (22.5) L/h/kg
same,Cl2_F,[1]; [5],313 (17400) L/h /kg
same,K12,[1]; [5],2.38 (899) 1/h
same,K21,[1]; [5],0.487 (0.497) 1/h
same,V1_F,[1]; [5],131 (42200) L/kg
same,V2_F,[1]; [5],642 (35300) L/kg
same,Cl1_F,[1]; [6],80.0 (22.5) L/h/kg
same,Cl2_F,[1]; [6],13.2 (226) L/h /kg
same,K12,[1]; [6],0.0271 (0.476) 1/h
same,K21,[1]; [6],0.369 (5.1) 1/h
same,V1_F,[1]; [6],487 (238) L/kg
same,AUC(0-inf),[1]; [7],425 ng·h/mL
same,Cmax,[1]; [7],64.1 ng/mL
same,Tmax,[1]; [7],0.455 h
same,half-life,"[1]; male, B6C3F1/N, mouse, plasma, po, Alpha Half-life, free BPAF, male mice, 34 mg/kg gavage, mean (SE)",1.67 h
same,half-life,"[1]; male, B6C3F1/N, mouse, plasma, po, Beta Half-life, free BPAF, male mice, 34 mg/kg gavage, mean (SE)",4.73 h
same,bioavailability,"[1]; male, B6C3F1/N, mouse, plasma, po, Bioavailability, free BPAF, Male Mice, 34 mg/kg gavage",~6%
same,half-life,"[1]; male, B6C3F1/N, mouse, plasma, po, K10 Half-Life, free BPAF, male mice, 34 mg/kg gavage, mean (SE)",4.22 h
same,Tmax (maximum plasma BPAF concentration observed at),[2],1 h
